We go through three compounds from patent publication US8586752B1, “Crystalline S-omeprazole strontium hydrate, method for preparing same, and pharmaceutical composition containing same” (Hanmi Science Co., Ltd, priority 2005, dated 2013).

What is called Solubility is the dissolved amount per volume that the medium holds.

A short description of series [1]: Heat stability test of the inventive salt. The series is classed as physicochemical. The conditions noted are these: for Amount of titrated S-omeprazole: sealed, 60° C. and 75% relative humidity. On the procedure:
The salt of Example 1 was stored in the sealed state under a stressed condition of 60° C. and 75% relative humidity, and the remaining amounts of active S-omeprazole after 7, 14, 21 and 28 days were measured by HPLC condition A. The results are shown in Table 5.

Series [2] can be described thus: Storage stability under long-term, accelerated aging and stressed conditions. The series is classed as physicochemical. Conditions: 25° C./60% RH exposed; 40° C./75% RH exposed; 60° C./75% RH closed; 2 to 4 weeks.
A further series is described as follows: Water-solubility test. The class given is physicochemical. Conditions: for Solubility: deionized water to saturation, 25° C., HPLC condition A; for Saturation pH: saturated solution in deionized water. On the procedure:
The S-omeprazole strontium tetrahydrate of the present invention and the S-omeprazole magnesium trihydrate were each dissolved in deionized water to saturation. The water-solubility of each of the saturated solutions was analyzed by HPLC under the previously described condition A and the amount of each salt hydrate dissolved was measured.

A further series can be described thus: Hygroscopicity test. The series is classed as physicochemical. Conditions: for Moisture content: exposed. On the procedure:
The inventive S-omeprazole strontium was exposed in the naked state at 25 to 40° C. and 40 to 90% relative humidity for a period of over 15 days. The moisture contents of the inventive salt measured with a Karl-Fisher titrator at storage time 0, 3, 7 and 15 days are shown in Table 4.

The next series deals with rats. Conditions: dose of 633 mg/kg/day; cited from earlier work.

Like-named read-outs stand apart in the source and are kept apart here.

In the case of `COc1ccc2nc([S@@+]([O-])Cc3ncc(C)c(OC)c3C)[nH]c2c1` [S-omeprazole strontium tetrahydrate, S-omerprazole strontium tetrahydrate], the “Amount of titrated S-omeprazole” value was found to be 997 µg/mg in series [1] (7 days); 998 µg/mg in series [1] (14 days); 997 µg/mg in series [1] (21 days); 997 µg/mg in series [1] (28 days); 997 µg/mg in series [1] (Initial). In addition, the Heat stability entry in series [1] (summary of Table 5 (60° C., 75% relative humidity, sealed, up to 28 days)) is “highly stable”. In addition, the Stability on storage result in series [2] is “maintain the initial moisture content, purity and crystallinity”. For the same compound, the Solubility was approximately 17.6 mg/mL in “Water-solubility test” (25 °C, water, thermodynamic from solid, read-out: Solubility) and 17.6 mg/mL in “Water-solubility test”. In addition, the “Saturation pH” value in “Water-solubility test” came to 10.2. The “Water solubility relative to S-omeprazole magnesium trihydrate” value in the series “Water-solubility test” (times higher than S-omeprazole magnesium trihydrate) is “at least 10 times”. Besides, the Moisture content worked out at 9.0 wt % in “Hygroscopicity test” (40% relative humidity (25° C.), 0 day); 8.9 wt % in “Hygroscopicity test” (40% relative humidity (25° C.), 3 days); 8.7 wt % in the series “Hygroscopicity test” (40% relative humidity (25° C.), 7 days); 8.8 wt % in the series “Hygroscopicity test” (40% relative humidity (25° C.), 15 days); 9.0 wt % in the series “Hygroscopicity test” (60% relative humidity (25° C.), 0 day); 9.0 wt % in the series “Hygroscopicity test” (60% relative humidity (25° C.), 3 days). Further, the Moisture content in “Hygroscopicity test” (60% relative humidity (25° C.), 7 days) turned out to be 9.2 wt %; in “Hygroscopicity test” (60% relative humidity (25° C.), 15 days), 9.1 wt %; in the series “Hygroscopicity test” (75% relative humidity (40° C.), 0 day) it was 9.0 wt %; in the series “Hygroscopicity test” (75% relative humidity (40° C.), 3 days) it was 8.9 wt %; in “Hygroscopicity test” (75% relative humidity (40° C.), 7 days), 9.0 wt %; in the series “Hygroscopicity test” (75% relative humidity (40° C.), 15 days), 8.9 wt %. Moreover, the Moisture content was determined as 9.0 wt % in “Hygroscopicity test” (90% relative humidity (35° C.), 0 day); 9.2 wt % in “Hygroscopicity test” (90% relative humidity (35° C.), 3 days); 9.3 wt % in “Hygroscopicity test” (90% relative humidity (35° C.), 7 days); 9.2 wt % in the series “Hygroscopicity test” (90% relative humidity (35° C.), 15 days). The Hygroscopicity entry in “Hygroscopicity test” (under a highly humid condition) was “less hygroscopic”. In “Hygroscopicity test” (under a low humidity condition), the Initial moisture content result is “maintained”.
With `COc1ccc2[n-]c([S+]([O-])Cc3ncc(C)c(OC)c3C)nc2c1.COc1ccc2[n-]c([S+]([O-])Cc3ncc(C)c(OC)c3C)nc2c1.O.O.O.[Mg+2]` (centres unmarked) [Magnesium trihydrate, S-Omeprazole Magnesium Trihydrate, reference compound], in the series “Water-solubility test”, the Solubility is 1.5 mg/mL and the “Saturation pH” value amounted to 9.9.
Regarding `[Sr+2]` [strontium, Strontium], the Safety entry with rats is recorded as “no safety problems”.
